US20210317092A1 (BAYER PHARMA AKTIENGESELLSCHAFT, priority 2016, published 2021)
Read-outs that look alike come from different tables or passages of the source. One block for each compound: values may come before it.

Tests used:
[1] = biological target: T1, human Bradykinin B1 receptor (Homo sapiens, UniProt P46663); assay: Calcium flux Assay (FLIPR) with recombinant CHO-K1 cells expressing human Bradykinin B1 receptor, in presence (hB1 IC50) or absence (hB1 free IC50) of 0.1% BSA; assay type: cell-based
T1 construct: host or cells: CHO-K1
T1 sequence (P46663 1-353): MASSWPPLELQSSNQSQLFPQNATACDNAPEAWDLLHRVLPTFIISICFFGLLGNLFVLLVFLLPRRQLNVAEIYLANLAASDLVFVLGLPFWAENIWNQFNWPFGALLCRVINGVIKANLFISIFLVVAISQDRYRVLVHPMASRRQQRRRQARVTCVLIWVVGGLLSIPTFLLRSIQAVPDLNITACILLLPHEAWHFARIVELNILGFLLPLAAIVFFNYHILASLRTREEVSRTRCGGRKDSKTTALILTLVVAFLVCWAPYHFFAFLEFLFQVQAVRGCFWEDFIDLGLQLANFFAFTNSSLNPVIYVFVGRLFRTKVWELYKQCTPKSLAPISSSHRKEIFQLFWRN

[2] = biological target: T2, native human Bradykinin B1 receptor (Homo sapiens, UniProt P46663); assay: Calcium flux Assay (FLIPR) with human fibroblasts expressing Bradykinin B1 receptor (hB1 IMR-90); assay type: cell-based; settings: IMR-90 human fibroblasts expressing native Bradykinin B1 receptor
T2 construct: which express native human Bradykinin B1 receptor after induction with human IL-10; Coriell Institute; host or cells: IMR-90 human foetal lung fibroblasts, cytokine-induced
T2 sequence (P46663 1-353): T1 sequence (P46663 1-353)
Method: Calcium flux Assay (FLIPR) with human fibroblasts expressing Bradykinin B1 receptor (hB1 IMR-90)
The Calcium flux Assay was carried out utilising IMR-90 human foetal lung fibroblasts (American Type Culture Collection, Rockville, Md.; and Coriell Institute, Camden, N.J.), which express native human Bradykinin B1 receptor after induction with human […].
The fibroblasts were cultured in complete growth media comprised of Dulbecco's modified Eagle's medium (DMEM; Sigma) containing 10% foetal bovine serum, 4 mM L-glutamine, and 1% nonessential amino acids. The cells were maintained in a humidified atmosphere with 5% CO2 at 37° C. and were sub-cultured at a ratio of 1:3, every other day.
For the assay, IMR-90 fibroblasts were harvested using TrypLE Express (GIBCO/Invitrogen) and seeded into 384-well plates (Corning Cellbinding Surface, Cat. 3683) at a density of 15000 cells/well. The following day, cells were treated with 0.35 ng/mL human […] in 10% FBS/MEM for 3h to up-regulate Bradykinin B1 receptor. Induced cells were loaded with fluorescent calcium indicator by incubation with 2.5 μM Fluo-4/AM (Invitrogen) at 37° C., 5% CO2 for 2 h in the presence of 2.5 mM probenecid in 1% FBS/MEM. Extracellular dye was removed by washing with assay buffer (2.5 mM probenecid and 0.1% BSA in 20 mM HEPES/HBSS without bicarbonate or phenol red, pH 7.5). Compound examples were assayed at 8 concentrations in triplicate. After addition of compound examples to the cell plate and incubation for 30 min at 28° C., the addition of Bradykinin B1 agonist Lys-(Des-Arg)-Bradykinin (Bachem, Brackley) at a final concentration of EC90 was carried out on the FLIPR instrument while continuously monitoring Ca^2+-dependent fluorescence at 538 nm. A peptide antagonist Lys-(Des-Arg-Leu)-Bradykinin (Bachem, Brackley) at 20 µM was used to determine the full inhibition as control. IC50 values were determined by the same way described for the FLIPR assay with recombinant cells.

[3] = in presence of 0.1% BSA, read-out: hB1 IC50
[4] = in absence of 0.1% BSA, read-out: hB1 free IC50

IC50 [1, 3]: 8.67 nM
IC50 [2]: 5.78 nM
SMILES: CCOc1ccc(-c2ccc(NC(=O)C3(c4cccc(C(F)(F)F)c4)CC3)cc2-c2nnn[nH]2)cn1 [Example 98, N-[4-(6-ethoxypyridin-3-yl)-3-(1H-tetrazol-5-yl)phenyl]-1-[3-(trifluoromethyl)phenyl] cyclopropane-carboxamide]

IC50 [1, 4]: 5.56 nM
IC50 [1, 3]: 20.2 nM
IC50 [2]: 8.84 nM
SMILES: CCOc1ccc(-c2ccc(NC(=O)C3(c4ccc(Cl)cc4)CC3)cc2-c2nnn[nH]2)cn1 [Example 100, 1-(4-chlorophenyl)-N-[4-(6-ethoxypyridin-3-yl)-3-(1H-tetrazol-5-yl)phenyl] cyclopropane-carboxamide]

IC50 [1, 4]: 4.54 nM
IC50 [1, 3]: 10.9 nM
IC50 [2]: 10.7 nM
SMILES: CCOc1ccc(-c2ccc(NC(=O)C3(c4ccc(C(F)(F)F)cc4)CC3)cc2-c2nnn[nH]2)cn1 [Example 105, N-[4-(6-ethoxypyridin-3-yl)-3-(1H-tetrazol-5-yl)phenyl]-1-[4-(trifluoromethyl)phenyl] cyclopropane-carboxamide]

IC50 [1, 4]: 4.98 nM
IC50 [1, 3]: 16.6 nM
IC50 [2]: 10.6 nM
SMILES: CCCOc1ccc(-c2ccc(NC(=O)C3(c4ccc(C(F)(F)F)cc4)CC3)cc2-c2nnn[nH]2)cn1 [Example 111, N-[4-(6-propoxypyridin-3-yl)-3-(1H-tetrazol-5-yl)phenyl]-1-[4-(trifluoromethyl)phenyl] cyclopropane-carboxamide]

IC50 [1, 3]: 28.2 nM
IC50 [2]: 19.4 nM
SMILES: CCOc1ccc(-c2ccc(NC(=O)C3(c4ccc(C(F)(F)F)cc4)CC3)cc2-c2nnn[nH]2)cc1OC [Example 121]

IC50 [1, 4]: 23.3 nM
IC50 [1, 3]: 13.8 nM
IC50 [2]: 26 nM
SMILES: COCc1ccc(-c2ccc(NC(=O)C3(c4cccc(Cl)c4)CC3)cc2-c2nnn[nH]2)cn1 [Example 125, 1-(3-chlorophenyl)-N-{4-[6-(methoxymethyl)pyridin-3-yl]-3-(1H-tetrazol-5-yl)phenyl} cyclopropane-carboxamide]

IC50 [1, 3]: 21.9 nM
IC50 [2]: 13.1 nM
SMILES: COCc1ccc(-c2ccc(NC(=O)C3(c4ccc(C(F)(F)F)cc4)CC3)cc2-c2nnn[nH]2)cn1 [Example 126, N-{4-[6-(methoxymethyl)pyridin-3-yl]-3-(1H-tetrazol-5-yl)phenyl}-1-[4-(trifluoromethyl)phenyl] cyclopropane-carboxamide]

IC50 [1, 4]: 88.6 nM
IC50 [1, 3]: 90.9 nM
IC50 [2]: 27.9 nM
SMILES: COCc1ccc(-c2ccc(NC(=O)C3(c4ccc(F)cc4F)CC3)cc2-c2nnn[nH]2)cn1 [Example 127, 1-(2,4-difluorophenyl)-N-{4-[6-(methoxymethyl)pyridin-3-yl]-3-(1H-tetrazol-5-yl)phenyl} cyclopropane-carboxamide]

IC50 [1, 4]: 2.68 nM
IC50 [1, 3]: 137 nM
IC50 [2]: 63.3 nM
SMILES: O=C(Nc1ccc(-c2ccc(C(F)(F)F)cc2)c(-c2nnn[nH]2)c1)C1(c2cccc(Cl)c2)CC1 [Example 128, 1-(3-chlorophenyl)-N-[2-(1H-tetrazol-5-yl)-4′-(trifluoromethyl)biphenyl-4-yl]cyclopropane carboxamide]

IC50 [1, 4]: 165 nM
IC50 [2]: 15.7 nM
SMILES: O=C(Nc1ccc(-c2ccc(C(F)(F)F)nc2)c(-c2nnn[nH]2)c1)C1(c2ccc(OC(F)(F)F)cc2)CC1 [Example 136, N-{3-(1H-tetrazol-5-yl)-4-[6-(trifluoromethyl)pyridin-3-yl]phenyl}-1-[4-(trifluoromethoxy)phenyl] cyclopropane-carboxamide]

Continued, compound first:

SMILES: CCOc1ccc(-c2ccc(NC(=O)C3(c4cccc(C)c4)CC3)cc2-c2nnn[nH]2)cn1 [Example 94, N-[4-(6-ethoxypyridin-3-yl)-3-(1H-tetrazol-5-yl)phenyl]-1-(3-methylphenyl) cyclopropane-carboxamide]
IC50 [1, 3]: 23.8 nM
IC50 [2]: 25.1 nM

SMILES: CCCc1cccc(C2(C(=O)Nc3ccc(-c4ccc(OCC)nc4)c(-c4nnn[nH]4)c3)CC2)c1 [Example 96, N-[4-(6-ethoxypyridin-3-yl)-3-(1H-tetrazol-5-yl)phenyl]-1-(3-propylphenyl) cyclopropane-carboxamide]
IC50 [1, 4]: 5.32 nM
IC50 [1, 3]: 6.58 nM
IC50 [2]: 15.3 nM

SMILES: CCOc1ccc(-c2ccc(NC(=O)C3(c4cccc(C(C)(C)C)c4)CC3)cc2-c2nnn[nH]2)cn1 [Example 97, 1-(3-tert-butylphenyl)-N-[4-(6-ethoxypyridin-3-yl)-3-(1H-tetrazol-5-yl)phenyl] cyclopropane-carboxamide]
IC50 [1, 3]: 138 nM
IC50 [2]: 101 nM

SMILES: CCOc1ccc(-c2ccc(NC(=O)C3(c4ccc(C)cc4)CC3)cc2-c2nnn[nH]2)cn1 [Example 99, N-[4-(6-ethoxypyridin-3-yl)-3-(1H-tetrazol-5-yl)phenyl]-1-(4-methylphenyl) cyclopropane-carboxamide]
IC50 [1, 3]: 24 nM
IC50 [2]: 11.8 nM

SMILES: CCOc1ccc(-c2ccc(NC(=O)C3(c4ccc(F)cc4F)CC3)cc2-c2nnn[nH]2)cn1 [Example 101, 1-(2,4-difluorophenyl)-N-[4-(6-ethoxypyridin-3-yl)-3-(1H-tetrazol-5-yl)phenyl] cyclopropane-carboxamide]
IC50 [1, 4]: 24.5 nM
IC50 [1, 3]: 38.7 nM
IC50 [2]: 22.1 nM

SMILES: CCOc1ccc(-c2ccc(NC(=O)C3(c4ccc(F)c(C)c4)CC3)cc2-c2nnn[nH]2)cn1 [Example 102, N-[4-(6-ethoxypyridin-3-yl)-3-(1H-tetrazol-5-yl]phenyl]-1-(4-fluoro-3-methylphenyl) cyclopropane-carboxamide]
IC50 [1, 3]: 34.8 nM
IC50 [2]: 21 nM

SMILES: CCCOc1ccc(-c2ccc(NC(=O)C3(c4cccc(Cl)c4)CC3)cc2-c2nnn[nH]2)cn1 [Example 110, 1-(3-chlorophenyl)-N-[4-(6-propoxypyridin-3-yl)-3-(1H-tetrazol-5-yl)phenyl] cyclopropane-carboxamide]
IC50 [1, 4]: 5.68 nM
IC50 [1, 3]: 12.7 nM
IC50 [2]: 11 nM

SMILES: CCCOc1ccc(-c2ccc(NC(=O)C3(c4ccc(F)cc4F)CC3)cc2-c2nnn[nH]2)cn1 [Example 112, 1-(2,4-difluorophenyl)-N-[4-(6-propoxypyridin-3-yl)-3-(1H-tetrazol-5-yl)phenyl] cyclopropane-carboxamide]
IC50 [1, 4]: 16.2 nM
IC50 [1, 3]: 44.9 nM
IC50 [2]: 20.4 nM

SMILES: CCOc1ccc(-c2ccc(NC(=O)C3(c4cccc(Cl)c4)CC3)cc2-c2nnn[nH]2)cc1OC [Example 119, 1-(3-chlorophenyl)-N-[4′-ethoxy-3′-methoxy-2-(1H-tetrazol-5-yl)biphenyl-4-yl]cyclopropane carboxamide]
IC50 [1, 4]: 2.88 nM
IC50 [1, 3]: 22.7 nM
IC50 [2]: 13.1 nM

SMILES: CCOc1ccc(-c2ccc(NC(=O)C3(c4cccc(C(F)(F)F)c4)CC3)cc2-c2nnn[nH]2)cc1OC [Example 120, N-[4′-ethoxy-3′-methoxy-2-(1H-tetrazol-5-yl)biphenyl-4-yl]-1-[3-(trifluoromethyl)phenyl] cyclopropane-carboxamide]
IC50 [1, 3]: 30.6 nM
IC50 [2]: 25.1 nM

SMILES: CCOc1ccc(-c2ccc(NC(=O)C3(c4ccc(F)cc4F)CC3)cc2-c2nnn[nH]2)cc1OC [Example 122, 1-(2,4-difluorophenyl)-N-[4′-ethoxy-3′-methoxy-2-(1H-tetrazol-5-yl)biphenyl-4-yl]cyclopropane carboxamide]
IC50 [1, 3]: 56.5 nM
IC50 [2]: 28.7 nM

SMILES: O=C(Nc1ccc(-c2ccc(C(F)(F)F)nc2)c(-c2nnn[nH]2)c1)C1(c2cccc(Cl)c2)CC1 [Example 135, 1-(3-chlorophenyl)-N-{3-(1H-tetrazol-5-yl)-4-[6-(trifluoromethyl)pyridin-3-yl]phenyl} cyclopropane-carboxamide]
IC50 [1, 4]: 58.7 nM
IC50 [1, 3]: 516 nM
IC50 [2]: 91.8 nM

SMILES: O=C(Nc1ccc(-c2ccc(C(F)(F)F)nc2)c(-c2nnn[nH]2)c1)C1(c2ccc(Cl)c(F)c2)CC1 [Example 137, 1-(4-Chloro-3-fluorophenyl)-N-{3-(1H-tetrazol-5-yl)-4-[6-(trifluoromethyl)pyridin-3-yl]phenyl} cyclopropane-carboxamide]
IC50 [1, 4]: 17.1 nM
IC50 [2]: 43.9 nM
